{"source": "patent US20180104240A1", "about": "“AMELIORATION OF RADIATION-INDUCED COGNITIVE DYSFUNCTION” (NEURALSTEM, INC., priority 2016, published 2018)", "format_in_all_cases": "in vivo, rat", "key": {"Long Evans (LE) rats [1]": {"tested_on": "Long Evans (LE) rats", "assay": "Novel Place Recognition (NPR) spontaneous exploration task after head-only irradiation", "source_text": "(§1) Ten (10) week old Long Evans (LE) rats (Crl:LE, Strain Code: 006; Charles River) were divided randomly into three groups (n=16/group):\n(§2) Controls (Con) received oral gavage (vehicle only) and sham radiation.\n(§3) Radiation recipients with no drug (IRR) administered oral gavage (vehicle only) and 27 Gy head-only fractionated radiation.\n(§4) Radiation recipients having administered drug (IRR+NSI-189) received the compound of formula (2) wherein R^1=amyl as the phosphate salt by oral gavage. Drug was administered at 30 mg/kg (amount based exclusive of phosphate) and 27 Gy head-only fractionated radiation administered as in the IRR group. Rats in this group were administered NSI-189 in sterile vehicle (normal saline) as a 1× solution (15 mg/ml) starting 24 hours after the final dose of radiation and daily thereafter for 30 days. Sterile gavage needles with protected tips were used and the drug administered for less than a minute. […]\n(§5) Rats were subjected to cognitive testing using spontaneous exploration tasks outlined below 1 week after termination of oral gavage (5 weeks post irradiation) over the course of 3 weeks. […] All data were collected using Noldus Ethovision v8.5 and later hand scored by a technician blind to the treatment groups. […]"}, "Long Evans (LE) rats [2]": {"tested_on": "Long Evans (LE) rats", "assay": "Novel Object Recognition (NOR) spontaneous exploration task after head-only irradiation", "source_text": "as §1, §2, §3, §4, §5"}, "Long Evans (LE) rats [3]": {"tested_on": "Long Evans (LE) rats", "assay": "Object in Place (OiP) spontaneous exploration task after head-only irradiation", "source_text": "as §1, §2, §3, §4, §5"}, "Long Evans (LE) rats [4]": {"tested_on": "Long Evans (LE) rats", "assay": "Temporal Order (TO) spontaneous exploration task after head-only irradiation", "source_text": "as §1, §2, §3, §4, §5"}, "[5]": {"tested_on": "proliferating (BrdU+) cells present in the hippocampal dentate gyrus", "assay": "Neurogenesis: BrdU and BrdU/NeuN immunohistochemical labeling after head-only irradiation", "conditions": "irradiated rats, 30 mg/kg oral, 30 days", "description": "as §1\nRadiation recipients having administered drug (IRR+NSI-189) received the compound of formula (2) wherein R^1=amyl as the phosphate salt by oral gavage. Drug was administered at 30 mg/kg (amount based exclusive of phosphate) and 27 Gy head-only fractionated radiation administered as in the IRR group. Rats in this group were administered NSI-189 in sterile vehicle (normal saline) as a 1× solution (15 mg/ml) starting 24 hours after the final dose of radiation and daily thereafter for 30 days. Sterile gavage needles with protected tips were used and the drug administered for less than a minute.\nFor IRR and IRR+NSI-189, rats were anesthetized [2.5% (vol/vol) isoflurane/oxygen], placed ventrally on the treatment table (X-RAD 320 irradiator; Precision X-Ray) without restraint, and positioned under a collimated (1.0 cm^2 diameter) beam for head-only radiation delivered at a dose rate of 1.0 Gy/min. Fractionation of 27 Gy was delivered over 3 separate doses of […] that were administered 48 hours apart. […]\nRemaining animals that were not used for Golgi-Cox staining (n=12/group) were given a barbiturate overdose and were perfused/fixated using 4% paraformaldehyde and tissue removed. Tissue was analyzed by immunohistochemistry."}, "[6]": {"conditions": "IRR lower than IRR+NSI-189 (P<0.05), 30 mg/kg oral, 30 days, 27 Gy"}}, "data": [{"smiles": "CC(C)CCNc1ncccc1C(=O)N1CCN(Cc2ccccc2)CC1", "note": "[NSI-189]", "values": [{"measurement": "NPR exploration ratio of IRR+NSI-189 compared with Con (statistics, in words)", "setting": "Long Evans (LE) rats [1]; [6]", "result": "did not differ significantly from Con"}, {"measurement": "Exploration Ratio mean (NPR)", "setting": "Long Evans (LE) rats [1]; rats, 27 Gy head-only fractionated radiation, 30 mg/kg oral gavage daily for 30 days starting 24 hours after final radiation dose, tested 5 weeks post irradiation, 1 hour retention", "result": "mean = 60.69"}, {"measurement": "NOR exploration ratio of IRR+NSI-189 compared with Con (statistics, in words)", "setting": "Long Evans (LE) rats [2]; IRR lower than IRR+NSI-189 (P<0.01), 30 mg/kg oral, 30 days, 27 Gy", "result": "statistically indistinguishable"}, {"measurement": "Exploration Ratio mean (NOR)", "setting": "Long Evans (LE) rats [2]; rats, 27 Gy head-only fractionated radiation, 30 mg/kg oral gavage daily for 30 days, 5 min retention interval", "result": "mean = 71.28"}, {"measurement": "OiP exploration ratio of IRR+NSI-189 compared with Con (statistics, in words)", "setting": "Long Evans (LE) rats [3]; [6]", "result": "showed no significant differences"}, {"measurement": "Exploration Ratio mean (OiP)", "setting": "Long Evans (LE) rats [3]; rats, 27 Gy head-only fractionated radiation, 30 mg/kg oral gavage daily for 30 days", "result": "mean = 64.60"}, {"measurement": "TO exploration ratio of IRR+NSI-189 compared with Con (statistics, in words)", "setting": "Long Evans (LE) rats [4]; 30 mg/kg oral, 30 days, 27 Gy", "result": "did not differ statistically"}, {"measurement": "Exploration Ratio mean (TO)", "setting": "Long Evans (LE) rats [4]; rats, 27 Gy head-only fractionated radiation, 30 mg/kg oral gavage daily for 30 days, object sets 3 hours apart, test after additional 1 hour", "result": "mean = 67.95"}, {"measurement": "yield of BrdU+/NeuN+ cells (mature neurons) in the hippocampal dentate gyrus", "setting": "[5]; dual immunohistochemical labeling", "result": "returned the yield of BrdU^+/NeuN^+ cells to pre-irradiation levels"}, {"measurement": "number of proliferating (BrdU+) cells in the hippocampal dentate gyrus", "setting": "[5]; radiation alone gave significant (P<0.05) reduction", "result": "returned to pre-irradiation levels"}]}]}
